According to ChEMBL document CHEMBL3392989 (Bioorg Med Chem Lett, 2015):
pIC50: −log10 of the molar value. Activity calls are given as the source filed them. The rule behind the calls is not given here.

Tests used:
[1] = target: Cholinesterase (Equus caballus, UniProt P81908); test: Inhibition of horse serum BuChE pre-incubated for 20 mins before […] substrate addition by Ellman's assay
[2] = target: Amyloid-beta precursor protein (Homo sapiens) (UniProt P05067); test: Inhibition of Amyloid beta (1 to 42) (unknown origin) self aggregation at 5 uM pre-incubated for 24 hrs by Thioflavin T-based fluorometric assay
[3] = target: Amyloid-beta precursor protein (Homo sapiens) (UniProt P05067); test: Inhibition of Amyloid beta (1 to 42) (unknown origin) self aggregation at 50 uM pre-incubated for 24 hrs by Thioflavin T-based fluorometric assay
[4] = target: Beta-secretase 1 (Homo sapiens) (UniProt P56817); test: Inhibition of BACE1 (unknown origin) at 10 uM using ([Asn670, Lue671]-Amyloid beta/A4 precursor protein 770 fragment 667-676-(2,4dinitrophenyl) Lys-Arg-Arg amide trifluoroacetate salt substrate incubated for 2 hrs by FRET assay
[5] = tested on: HT-22; test: Cytotoxicity against mouse HT22 cells assessed as reduction in cell viability at 100 uM after 24 hrs by MTT assay; type: cell-based; conditions: ht-22, 24 h
[6] = tested on: HT-22; test: Cytoprotective activity in mouse HT22 cells assessed as reduction in glutamate-induced cytotoxicity at 0.3 to 10 uM pre-incubated for 30 mins before incubation with glutamate for 24 hrs by MTT assay; type: functional, cell-based
[7] = target: Acetylcholinesterase (Electrophorus electricus, UniProt O42275)
Description: Inhibition of electric eel AChE pre-incubated for 20 mins before acetylcholine iodide substrate addition by Ellman's assay

[8] = tested on: HT-22; test: Cytotoxicity against mouse HT22 cells assessed as reduction in cell viability at 10 to 100 uM after 24 hrs by MTT assay; type: cell-based; conditions: ht-22, 24 h
[9] = tested on: HT-22; test: Cytoprotective activity in mouse HT22 cells assessed as reduction in glutamate-induced cytotoxicity at 10 uM pre-incubated for 30 mins before incubation with glutamate for 24 hrs by MTT assay; type: functional, cell-based
[10] = Metal chelating activity assessed as copper chelation activity by measuring barhochromic shift at 40 uM using CuCl2 UV-vis spectroscopy; type: physicochemical
[11] = tested on: HT-22; test: Cytotoxicity against mouse HT22 cells assessed as reduction in cell viability at 30 to 100 uM after 24 hrs by MTT assay; type: cell-based; conditions: ht-22, 24 h
[12] = tested on: HT-22; test: Cytotoxicity against mouse HT22 cells assessed as reduction in cell viability at 10 uM after 24 hrs by MTT assay; type: cell-based; conditions: ht-22, 24 h
[13] = tested on: HT-22; test: Cytoprotective activity in mouse HT22 cells assessed as reduction in glutamate-induced cytotoxicity at 3 uM pre-incubated for 30 mins before incubation with glutamate for 24 hrs by MTT assay; type: functional, cell-based

Beta-secretase 1 (Homo sapiens), sequence (P56817 whole entry, the tested form may be a part): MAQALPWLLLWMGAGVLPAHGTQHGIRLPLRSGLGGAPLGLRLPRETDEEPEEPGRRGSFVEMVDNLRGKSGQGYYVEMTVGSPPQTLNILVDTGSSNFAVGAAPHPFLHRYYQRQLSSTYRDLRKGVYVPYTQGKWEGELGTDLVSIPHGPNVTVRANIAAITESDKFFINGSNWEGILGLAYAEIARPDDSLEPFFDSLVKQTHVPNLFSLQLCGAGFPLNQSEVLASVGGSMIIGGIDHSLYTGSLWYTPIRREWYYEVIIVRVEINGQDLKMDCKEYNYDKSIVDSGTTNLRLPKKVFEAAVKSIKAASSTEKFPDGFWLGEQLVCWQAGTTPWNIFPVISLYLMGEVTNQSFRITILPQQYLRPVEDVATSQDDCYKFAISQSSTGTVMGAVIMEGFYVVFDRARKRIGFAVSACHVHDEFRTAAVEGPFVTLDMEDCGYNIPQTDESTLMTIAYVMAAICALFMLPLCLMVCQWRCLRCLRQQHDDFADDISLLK
Acetylcholinesterase, sequence (O42275 whole entry): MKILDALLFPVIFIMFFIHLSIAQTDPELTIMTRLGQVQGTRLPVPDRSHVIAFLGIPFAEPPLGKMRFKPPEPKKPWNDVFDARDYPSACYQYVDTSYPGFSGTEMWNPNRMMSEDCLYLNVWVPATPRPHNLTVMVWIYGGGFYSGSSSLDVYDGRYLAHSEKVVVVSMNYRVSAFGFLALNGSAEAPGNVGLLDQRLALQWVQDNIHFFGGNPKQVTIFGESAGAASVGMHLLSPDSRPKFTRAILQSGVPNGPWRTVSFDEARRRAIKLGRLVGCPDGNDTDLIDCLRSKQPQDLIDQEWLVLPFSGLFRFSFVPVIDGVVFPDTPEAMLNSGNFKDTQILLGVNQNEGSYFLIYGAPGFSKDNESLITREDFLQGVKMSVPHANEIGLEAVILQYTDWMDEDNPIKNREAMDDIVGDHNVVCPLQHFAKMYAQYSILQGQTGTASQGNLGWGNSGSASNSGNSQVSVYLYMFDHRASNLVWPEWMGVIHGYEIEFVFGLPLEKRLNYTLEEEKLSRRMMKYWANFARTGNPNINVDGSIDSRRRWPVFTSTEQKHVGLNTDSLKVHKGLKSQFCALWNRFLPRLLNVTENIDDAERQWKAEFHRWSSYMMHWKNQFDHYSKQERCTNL
Amyloid-beta precursor protein (Homo sapiens), sequence (P05067 whole entry, the tested form may be a part): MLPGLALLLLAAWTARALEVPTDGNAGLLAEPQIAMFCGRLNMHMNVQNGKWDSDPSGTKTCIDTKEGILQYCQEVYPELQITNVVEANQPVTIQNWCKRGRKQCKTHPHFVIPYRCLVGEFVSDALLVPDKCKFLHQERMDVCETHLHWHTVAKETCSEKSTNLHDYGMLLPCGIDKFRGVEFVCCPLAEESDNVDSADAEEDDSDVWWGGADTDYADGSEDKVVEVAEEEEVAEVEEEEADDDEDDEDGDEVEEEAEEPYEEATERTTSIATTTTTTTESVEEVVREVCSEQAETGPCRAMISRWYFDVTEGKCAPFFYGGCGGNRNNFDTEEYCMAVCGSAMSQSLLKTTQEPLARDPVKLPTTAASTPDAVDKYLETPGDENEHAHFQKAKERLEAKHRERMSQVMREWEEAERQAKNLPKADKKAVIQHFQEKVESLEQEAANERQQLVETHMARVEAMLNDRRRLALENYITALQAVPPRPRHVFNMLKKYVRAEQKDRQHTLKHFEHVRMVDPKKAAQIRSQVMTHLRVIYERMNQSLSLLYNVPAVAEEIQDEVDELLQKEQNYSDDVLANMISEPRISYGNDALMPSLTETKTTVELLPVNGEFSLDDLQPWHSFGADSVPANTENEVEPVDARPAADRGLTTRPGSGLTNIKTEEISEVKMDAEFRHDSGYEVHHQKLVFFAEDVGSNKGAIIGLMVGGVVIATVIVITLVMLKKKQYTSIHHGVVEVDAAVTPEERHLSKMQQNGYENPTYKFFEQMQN
Cholinesterase, sequence (P81908 whole entry): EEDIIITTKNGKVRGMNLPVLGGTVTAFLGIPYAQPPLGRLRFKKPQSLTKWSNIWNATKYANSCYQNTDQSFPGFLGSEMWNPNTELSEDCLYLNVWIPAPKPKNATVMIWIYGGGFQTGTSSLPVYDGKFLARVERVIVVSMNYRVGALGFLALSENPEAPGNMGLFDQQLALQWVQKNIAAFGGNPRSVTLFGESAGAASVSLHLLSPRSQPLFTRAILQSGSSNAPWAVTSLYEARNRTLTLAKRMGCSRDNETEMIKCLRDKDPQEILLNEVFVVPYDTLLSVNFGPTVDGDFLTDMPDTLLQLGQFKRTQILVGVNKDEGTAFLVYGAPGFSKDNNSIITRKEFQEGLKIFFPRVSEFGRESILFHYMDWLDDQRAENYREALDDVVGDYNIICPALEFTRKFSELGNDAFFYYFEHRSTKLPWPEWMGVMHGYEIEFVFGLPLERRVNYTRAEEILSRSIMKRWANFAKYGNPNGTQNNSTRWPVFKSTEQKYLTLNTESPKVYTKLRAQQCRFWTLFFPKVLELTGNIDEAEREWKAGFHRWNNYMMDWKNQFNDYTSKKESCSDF

Row | SMILES | pIC50 [1] | inhibition [2] | inhibition [3] | inhibition [4] | Activity [5] | Activity [6] | pIC50 [7] | Activity [8] | Activity [9] | Activity [10] | Activity [11] | Activity [12] | Activity [13]
1 | COc1cc(/C=C/C(=O)NCC(O)CNc2c3c(nc4cc(Cl)ccc24)CCCC3)ccc1O (stereo not given) | 6.15 | 13.5% | 48.9% | 2.57% | Toxic | inactive | 7.70 |  |  |  |  |  | 
2 | O=C(/C=C/c1ccc(O)c(O)c1)NCC(O)CNc1c2c(nc3ccccc13)CCCC2 (stereo not given) | 6.00 | 12.8% | 49.8% | 10.5% |  | inactive | 6.15 | Non-toxic |  |  |  |  | 
3 | COc1cc(/C=C/C(=O)NCC(O)CNc2c3c(nc4ccccc24)CCCC3)ccc1O (stereo not given) | 6.51 | 8.4% | 46.3% | 15% |  | inactive | 7.52 | Non-toxic |  |  |  |  | 
4 | O=C(/C=C/c1ccc(O)c(O)c1)NCC(O)CNc1c2c(nc3cc(Cl)ccc13)CCCC2 (stereo not given) | 6.44 | 9.2% | 53.2% | 13.1% | Toxic |  | 6.82 |  | Active | Active |  |  | 
5 | O=C(CCCCC1CCSS1)NCC(O)CNc1c2c(nc3cc(Cl)ccc13)CCCC2 (stereo not given) | 5.99 |  |  | 46.8% |  |  | 7.40 |  |  |  | Toxic | Toxic | Active
6 | O=C(CCCCC1CCSS1)NCC(O)CNc1c2c(nc3ccccc13)CCCC2 (stereo not given) | 5.93 |  |  | 24.8% |  |  | 7.00 |  |  |  | Toxic |  | Active
